A word on the IC50: it is the point on the concentration scale where inhibition reaches its midpoint.

Molecules are shown by their SMILES.

This experiment addresses T1, recombinant CETP enzyme (rCETP) (Homo sapiens, UniProt P11597).
T1 construct: purchased ROAR Biomedicals, USA
T1 sequence (P11597 18-493): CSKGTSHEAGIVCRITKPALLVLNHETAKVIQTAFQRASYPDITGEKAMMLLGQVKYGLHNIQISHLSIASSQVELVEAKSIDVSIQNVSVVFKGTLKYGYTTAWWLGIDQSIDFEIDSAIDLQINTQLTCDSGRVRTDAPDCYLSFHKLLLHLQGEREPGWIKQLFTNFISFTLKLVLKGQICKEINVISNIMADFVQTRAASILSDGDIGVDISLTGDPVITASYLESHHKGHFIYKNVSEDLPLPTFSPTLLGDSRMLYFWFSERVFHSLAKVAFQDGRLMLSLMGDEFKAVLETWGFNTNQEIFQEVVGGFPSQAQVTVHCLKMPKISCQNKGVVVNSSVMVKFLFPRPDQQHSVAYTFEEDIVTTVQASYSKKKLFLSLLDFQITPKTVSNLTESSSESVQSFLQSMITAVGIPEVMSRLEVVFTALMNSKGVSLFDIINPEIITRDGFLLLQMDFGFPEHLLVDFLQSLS
As to the kind of experiment: In vitro CETP inhibition assay, fluorometric kit (ROAR Biomedicals). As to conditions: rCETP 50 ng, 37° C. for 90 minutes, fluorescence Ex 492 nm / Em 516 nm. The class given is biochemical. From the text: Determination of in Vitro CETP Activity Using Fluorometric Technique
An in vitro cholesteryl ester transfer protein inhibition (CETP) assay using a commercially available fluorometric assay kit from ROAR Biomedicals, USA was used to measure the CETP inhibition activity of the compounds of this application. This assay kit uses a donor molecule containing a fluorescent self-quenched neutral lipid that is transferred to an acceptor molecule in the presence of recombinant CETP enzyme (rCETP). The CETP-mediated transfer of the fluorescent neutral lipid to the acceptor molecule results in an increase in fluorescence (Excitation: 492 nm; Emission: 516 nm).
20 mM stock solutions of compounds were prepared in 100% DMSO and further dilutions were made such that the final concentration of DMSO in the reaction mix was 1%. […] The assay was performed in 96 well microplates and in each well, the reaction mixture contained 190 μl of assay buffer (150 mM NaCl, 10 mM Tris and 2 mM EDTA, pH-7.4), 4 μl of donor particle, 4 μl of acceptor particle, rCETP (50 ng) and 2 μl of test compound at varying final concentration of 0.1, 1, 10, 100, 1000 & 10000 nM. Two control reactions were performed, one without test compound (positive control) and the other without the rCETP (negative control). The reactions were incubated at 37° C. for 90 minutes and the reaction plate was transferred to a PCR machine MX3005P and the fluorescence units (FLU) were quantified (Excitation: 492 nm; Emission: 516 nm).
The negative control values were subtracted from the positive control as well as all the test values to correct for background fluorescence. The percentage inhibition of activity was calculated by using the following equation: % Inhibition of CETP activity=[100−(100×(FLU in test/FLU in positive control))].
The half maximal inhibitory concentration (IC50) was determined using the BIOGRAPH software (version no. 3.3).
Take `Cc1nn(C(C)(C)C)c2nc(N(CC3CC3)CC3CC3)c(CN(Cc3cc(C(F)(F)F)cc(C(F)(F)F)c3)c3ncc(N4CCOCC4)cn3)cc12` [Example 14, 5-(((3,5-Bis(trifluoromethyl)benzyl)(5-morpholinopyrimidin-2-yl)amino)methyl)-1-(tert-butyl)-N,N-bis(cyclopropylmethyl)-3-methyl-1H-pyrazolo[3,4-b]pyridin-6-amine]: the IC50 came to 46 nM.

Take `CC(=O)c1cnc(N(Cc2cc(C(F)(F)F)cc(C(F)(F)F)c2)Cc2cc3c(C)nn(C(C)(C)C)c3nc2N(CC2CC2)CC2CC2)nc1` [Example 5, 1-(2-(((6-(bis(cyclopropylmethyl)amino)-1-(tert-butyl)-3-methyl-1H-pyrazolo[3,4-b]pyridin-5-yl)methyl)(3,5-bis(trifluoromethyl)benzyl)amino)pyrimidin-5-yl)ethanone]: the IC50 turned out to be 41.5 nM.

For the compound `Cc1nn(C(C)(C)C)c2nc(N(CC3CC3)CC3CC3)c(CN(Cc3cc(C(F)(F)F)cc(C(F)(F)F)c3)c3ncc(NC(=O)C(C)C)cn3)cc12` [Example 1, N-(2-(((6-(bis(cyclopropylmethyl)amino)-1-(tert-butyl)-3-methyl-1H-pyrazolo[3,4-b]pyridin-5-yl)methyl)(3,5-bis(trifluoromethyl)benzyl)amino)pyrimidin-5-yl) isobutyramide], the IC50 came out at 64 nM. With `Cc1nn(C(C)(C)C)c2nc(N(CC3CC3)CC3CC3)c(CN(Cc3cc(C(F)(F)F)cc(C(F)(F)F)c3)c3ccc(C4CC4)cn3)cc12` [Example 2, 5-(((3,5-Bis(trifluoromethyl)benzyl)(5-cyclopropylpyridin-2-yl)amino)methyl)-1-(tert-butyl)-N,N-bis(cyclopropylmethyl)-3-methyl-1H-pyrazolo[3,4-b]pyridin-6-amine], the concentration for half-maximal inhibition (IC50) stood at 78 nM. For the compound `Cc1nn(C(C)(C)C)c2nc(N(CC3CC3)CC3CC3)c(CN(Cc3cc(C(F)(F)F)cc(C(F)(F)F)c3)c3ncc(-c4cc[nH]n4)cn3)cc12` [Example 8, 5-(((5-(1H-pyrazol-3-yl)pyrimidin-2-yl)(3,5-bis(trifluoromethyl)benzyl)amino)methyl)-1-(tert-butyl)-N,N-bis(cyclopropylmethyl)-3-methyl-1H-pyrazolo[3,4-b]pyridin-6-amine], the IC50 stood at 27 nM. For `Cc1nc(N(Cc2cc(C(F)(F)F)cc(C(F)(F)F)c2)Cc2cc3c(C)nn(C(C)(C)C)c3nc2N(CC2CC2)CC2CC2)ncc1C(=O)O` [Example 18, 2-(((6-(Bis(cyclopropylmethyl)amino)-1-(tert-butyl)-3-methyl-1H-pyrazolo[3,4-b]pyridin-5-yl)methyl)(3,5-bis(trifluoromethyl)benzyl)amino)-4-methylpyrimidine-5-carboxylic acid] the value was 54 nM; for `Cc1nn(C(C)(C)C)c2nc(N(CC3CC3)CC3CC3)c(CN(Cc3cc(C(F)(F)F)cc(C(F)(F)F)c3)c3ncc(C#N)cn3)cc12` [Example 10, 2-(((6-(bis(cyclopropylmethyl)amino)-1-(tert-butyl)-3-methyl-1H-pyrazolo[3,4-b]pyridin-5-yl)methyl)(3,5-bis(trifluoromethyl)benzyl)amino)pyrimidine-5-carbonitrile], 1250 nM.

On to `Cc1nn(C(C)(C)C)c2nc(N(CC3CC3)CC3CC3)c(CN(Cc3cc(C(F)(F)F)cc(C(F)(F)F)c3)c3ncc(C(=O)N(C)C)cn3)cc12` [Example 12, 2-(((6-(bis(cyclopropylmethyl)amino)-1-(tert-butyl)-3-methyl-1H-pyrazolo[3,4-b]pyridin-5-yl)methyl)(3,5-bis(trifluoromethyl)benzyl)amino)-N,N-dimethylpyrimidine-5-carboxamide], for which the IC50 is 215 nM.

Consider `CC(=O)c1cnc(N(Cc2cc(C(F)(F)F)cc(C(F)(F)F)c2)Cc2cc3c(C)nn(C)c3nc2N(CC2CC2)CC2CC2)nc1` [Example 4, 1-(2-(((6-(bis(cyclopropylmethyl)amino)-1,3-dimethyl-1H-pyrazolo[3,4-b]pyridin-5-yl)methyl)(3,5-bis(trifluoromethyl)benzyl)amino)pyrimidin-5-yl)ethanone], for which the IC50 amounted to 5.7 nM. The figure for `Cc1nn(C(C)(C)C)c2nc(N(CC3CC3)CC3CC3)c(CN(Cc3cc(C(F)(F)F)cc(C(F)(F)F)c3)c3ncc(NC(=O)C4CC4)cn3)cc12` [Example 3, N-(2-(((6-(bis(cyclopropylmethyl)amino)-1-(tert-butyl)-3-methyl-1H-pyrazolo[3,4-b]pyridin-5-yl)methyl)(3,5-bis(trifluoromethyl)benzyl)amino)pyrimidin-5-yl)cyclopropanecarboxamide] is 35 nM. Take `Cc1nn(C(C)(C)C)c2nc(N(CC3CC3)CC3CC3)c(CN(Cc3cc(C(F)(F)F)cc(C(F)(F)F)c3)c3ncc(N4CCCC4=O)cn3)cc12` [Example 16, 1-(2-(((6-(Bis(cyclopropylmethyl)amino)-1-(tert-butyl)-3-methyl-1H-pyrazolo[3,4-b]pyridin-5-yl)methyl)(3,5-bis(trifluoromethyl)benzyl)amino)pyrimidin-5-yl)pyrrolidin-2-one]: the IC50 came to 56 nM. The figure for `Cc1nn(C(C)(C)C)c2nc(N(CC3CC3)CC3CC3)c(CN(Cc3cc(C(F)(F)F)cc(C(F)(F)F)c3)c3ncc(-c4ccon4)cn3)cc12` [Example 7] is 9.4 nM; for `Cc1nn(C(C)(C)C)c2nc(N(CC3CC3)CC3CC3)c(CN(Cc3cc(C(F)(F)F)cc(C(F)(F)F)c3)c3ncc(C(=O)O)cn3)cc12` [Example 20, 2-(((6-(Bis(cyclopropylmethyl)amino)-1-(tert-butyl)-3-methyl-1H-pyrazolo[3,4-b]pyridin-5-yl)methyl)(3,5-bis(trifluoromethyl)benzyl)amino)pyrimidine-5-carboxylic acid] it is 61 nM; for `Cc1nn(C(C)(C)C)c2nc(N(CC3CC3)CC3CC3)c(CN(Cc3cc(C(F)(F)F)cc(C(F)(F)F)c3)c3ncc(N4CCOC4=O)cn3)cc12` [Example 13, 3-(2-(((6-(bis(cyclopropylmethyl)amino)-1-(tert-butyl)-3-methyl-1H-pyrazolo[3,4-b]pyridin-5-yl)methyl)(3,5-bis(trifluoromethyl)benzyl)amino)pyrimidin-5-yl)oxazolidin-2-one] it is 10 nM.

Take `Cc1nn(C)c2nc(N(CC3CC3)CC3CC3)c(CN(Cc3cc(C(F)(F)F)cc(C(F)(F)F)c3)c3ncc(N4CCOCC4)cn3)cc12` [Example 15, 5-(((3,5-bis(trifluoromethyl)benzyl)(5-morpholinopyrimidin-2-yl)amino)methyl)-N,N-bis(cyclopropylmethyl)-1,3-dimethyl-1H-pyrazolo[3,4-b]pyridin-6-amine]: the IC50 came to 49 nM. `CCOC(=O)c1cnc(N(Cc2cc(C(F)(F)F)cc(C(F)(F)F)c2)Cc2cc3c(C)nn(C(C)(C)C)c3nc2N(CC2CC2)CC2CC2)nc1` [Example 19, Ethyl 2-(((6-(bis(cyclopropylmethyl)amino)-1-(tert-butyl)-3-methyl-1H-pyrazolo[3,4-b]pyridin-5-yl)methyl)(3,5-bis(trifluoromethyl)benzyl)amino)pyrimidine-5-carboxylate]: the IC50 was determined as 70 nM. The figure for `Cc1nn(C(C)(C)C)c2nc(N(CC3CC3)CC3CC3)c(CN(Cc3cc(C(F)(F)F)cc(C(F)(F)F)c3)c3ncc(C(N)=O)cn3)cc12` [Example 11, 2-(((6-(bis(cyclopropylmethyl)amino)-1-(tert-butyl)-3-methyl-1H-pyrazolo[3,4-b]pyridin-5-yl)methyl)(3,5-bis(trifluoromethyl)benzyl)amino)pyrimidine-5-carboxamide] is 18 nM; for `Cc1nn(C(C)(C)C)c2nc(N(CC3CC3)CC3CC3)c(CN(Cc3cc(C(F)(F)F)cc(C(F)(F)F)c3)c3ncc(-c4ccn(C)n4)cn3)cc12` [Example 9, 5-(((3,5-Bis(trifluoromethyl)benzyl)(5-(1-methyl-1H-pyrazol-3-yl)pyrimidin-2-yl)amino)methyl)-1-(tert-butyl)-N,N-bis(cyclopropylmethyl)-3-methyl-1H-pyrazolo[3,4-b]pyridin-6-amine] it is 100 nM.

For the origin of these results see patent US9000007B2, “5-benzylaminomethyl-6-aminopyrazolo [3, 4 -B] pyridine derivatives as cholesteryl ester-transfer protein (CETP) inhibitors useful for the treatment of atherosclerosis” (Dr. Reddy's Laboratories, Ltd., priority 2011, dated 2015).
